Measurements from PMC7241120 (2020).

Tested on: Pu19m2 (DNA, G4) AAGGGAGGGCGGCGGGACA
Assay: thermal melting
Settings: 50 mM K+; complex ~60 °C, free unimolecular vG4 ~45 °C

Nc1nc2c(ncn2[C@H]2C[C@H](O)[C@@H](COP(=O)(O)O)O2)c(=O)[nH]1
Tm: ~ 15 °C
